Tests used:
TRPV1 receptor [1] = target: T1, TRPV1 receptor (Rattus norvegicus, UniProt O35433); assay: TRPV1 receptor modulation in the rat vas deferens, EFS-induced contraction (Assay 1); conditions: electrical field stimulation, read-out: Inhibition of EFS response relative to capsaicin
Protocol: Wistar derived male rats (275±25 g) were suppressed by CO2 overexposure. The vas deferens was removed, placed in Krebs solution, pH 7.4 (composition in g/l: NaCl 6.89, KCl 0.35, CaCl2 0.277, KH2PO4 0.163, MgSO4.7H2O 0.296, NaHCO3 2.1 glucose 1.8) and excess fat and connective tissue removed. The portion of the vas deferens closest to the prostate was cut in half and each half was placed under 1 g tension in a 10 ml bath containing Krebs solution at 32° C. The tissue was contracted by electrical field stimulation (EFS; 60% of maximum stimulation, 0.015 Hz, 0.5 ms in duration) and contractile responses were measured.

[2] = tested on: histamine-induced contractions in guinea pig ileum; assay: Inhibition of histamine-induced contractions in guinea pig ileum (Assay 3); conditions: Cavia porcellus, histamine 1.7 μM, read-out: Inhibition of histamine-induced contraction (%)
Outline: (§1)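 Isolated male guinea pig ileum strips in Krebs at 32° C, pH 7.4, 1 g resting tension, isotonic recording. Contraction to test compound (3 and 30 μM) alone recorded, then inhibition of responses to histamine 1.7 μM or 5-HT 2.6 μM (~EC60-70, 5 min) measured in its continued presence.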

[3] = tested on: 5-HT-induced contractions in guinea pig ileum; assay: Inhibition of 5-HT-induced contractions in guinea pig ileum (Assay 3); conditions: Cavia porcellus, 5-HT 2.6 μM, read-out: Inhibition of 5-HT-induced contraction (%)
Outline: as §1

[4] = tested on: IL-1α-induced PGE2 release; assay: IL-1α-induced PGE2 release in human diploid lung fibroblasts (WI-38) (Assay 5); assay type: cell-based; conditions: Homo sapiens, WI-38 cells, IL-1α 1 nM, overnight
Outline: (§2)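 WI-38 fibroblasts stimulated overnight at 37 °C with 1 nM IL-1α plus test compound at 3 and 30 μM in MEM with 10% FBS, pH 7.3; released PGE2 in supernatant quantified by radioimmunoassay as percent inhibition. Viability then checked by Alamar Blue, 4 h at 37 °C, fluorescence ex 530/em 590 nm.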

WI-38 cells = assay: Viability of WI-38 cells, Alamar Blue (Assay 5); assay type: cell-based, human
Outline: as §2

5-lipoxygenase = target: T2, 5-lipoxygenase (Homo sapiens, UniProt P09917); assay: 5-lipoxygenase activity (LTB4) in human peripheral blood mononuclear leukocytes (Assay 6); assay type: cell-based; conditions: human PBMLs, A23187 30 μM, read-out: Inhibition of 5-LO (%)
T2 construct: endogenous in cells; host or cells: human peripheral blood mononuclear leukocytes (PBMLs)
T2 sequence (P09917 1-674): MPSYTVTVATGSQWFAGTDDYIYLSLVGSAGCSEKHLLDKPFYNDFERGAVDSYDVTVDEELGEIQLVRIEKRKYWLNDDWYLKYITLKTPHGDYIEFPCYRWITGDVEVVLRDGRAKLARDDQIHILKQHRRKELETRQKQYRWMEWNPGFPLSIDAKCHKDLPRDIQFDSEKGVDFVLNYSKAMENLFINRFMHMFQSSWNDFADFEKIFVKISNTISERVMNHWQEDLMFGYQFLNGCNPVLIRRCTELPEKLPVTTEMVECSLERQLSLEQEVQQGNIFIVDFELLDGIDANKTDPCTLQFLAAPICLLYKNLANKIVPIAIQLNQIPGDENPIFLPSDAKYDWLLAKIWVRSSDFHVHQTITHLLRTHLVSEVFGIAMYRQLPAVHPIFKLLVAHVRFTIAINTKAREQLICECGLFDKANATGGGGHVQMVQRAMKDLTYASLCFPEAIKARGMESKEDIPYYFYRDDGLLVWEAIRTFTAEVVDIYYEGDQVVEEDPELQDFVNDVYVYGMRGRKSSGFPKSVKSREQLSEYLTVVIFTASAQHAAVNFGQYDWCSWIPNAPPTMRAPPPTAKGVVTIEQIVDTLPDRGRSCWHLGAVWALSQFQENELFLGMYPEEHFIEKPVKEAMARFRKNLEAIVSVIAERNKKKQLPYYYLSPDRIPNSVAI
Outline: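 Human PBMLs (5×10^6 cells, Ficoll-isolated) stimulated with 30 μM A23187 plus compound at 3 or 30 μM or 0.1% DMSO in HBSS pH 7.4, 37° C., 15 min. After NaOH neutralisation and centrifugation, supernatant LTB4 measured by enzyme immunoassay.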

[5] = tested on: α-smooth muscle actin (α-SMA) mRNA; assay: Anti-remodelling activity in human lung fibroblasts (HFL1): TGFβ-induced α-SMA mRNA (Assay 4); assay type: cell-based; conditions: Homo sapiens, HFL1 cells, TGFβ 10 ng/ml, 24 h, read-out: Inhibition of α-SMA mRNA synthesis (%)
Outline: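 Real-time RT-PCR of α-SMA mRNA, GAPDH as reference, measured after 24 h exposure of low-serum-primed HFL1 cells to 10 ng/ml TGFβ with test compounds (3 and 30 μM) in 10% FBS medium. Readout is inhibition of TGFβ-driven α-SMA mRNA overexpression.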

TRPV1 receptor [6] = target: T1, TRPV1 receptor; assay: TRPV1 modulation in DRG neurones: CGRP release in absence and presence of capsaicin (Assay 2); assay type: cell-based; parameters: The culture used for this experiment contained sensory neurones, Schwann cells and fibroblasts; endogenous in cells; host or cells: primary rat DRG sensory neurone culture (with Schwann cells and fibroblasts); conditions: 20 min; for inhibition at 3 µM: 3 μM with capsaicin 1 μM; for inhibition at 3 µM / inhibition at 30 µM: −ve: inhibition, +ve: potentiation of capsaicin response, read-out: Effect of test compounds on capsaicin (1 μM)-induced CGRP release (%); for inhibition at 30 µM: 30 μM with capsaicin 1 μM; for Emax at 3 µM: test compound alone 3 μM; for Emax at 3 µM / Emax at 30 µM: rat DRG sensory neurones, read-out: CGRP release (% of capsaicin (1 μM) response); for Emax at 30 µM: test compound alone 30 μM

T1 sequence (O35433 whole entry): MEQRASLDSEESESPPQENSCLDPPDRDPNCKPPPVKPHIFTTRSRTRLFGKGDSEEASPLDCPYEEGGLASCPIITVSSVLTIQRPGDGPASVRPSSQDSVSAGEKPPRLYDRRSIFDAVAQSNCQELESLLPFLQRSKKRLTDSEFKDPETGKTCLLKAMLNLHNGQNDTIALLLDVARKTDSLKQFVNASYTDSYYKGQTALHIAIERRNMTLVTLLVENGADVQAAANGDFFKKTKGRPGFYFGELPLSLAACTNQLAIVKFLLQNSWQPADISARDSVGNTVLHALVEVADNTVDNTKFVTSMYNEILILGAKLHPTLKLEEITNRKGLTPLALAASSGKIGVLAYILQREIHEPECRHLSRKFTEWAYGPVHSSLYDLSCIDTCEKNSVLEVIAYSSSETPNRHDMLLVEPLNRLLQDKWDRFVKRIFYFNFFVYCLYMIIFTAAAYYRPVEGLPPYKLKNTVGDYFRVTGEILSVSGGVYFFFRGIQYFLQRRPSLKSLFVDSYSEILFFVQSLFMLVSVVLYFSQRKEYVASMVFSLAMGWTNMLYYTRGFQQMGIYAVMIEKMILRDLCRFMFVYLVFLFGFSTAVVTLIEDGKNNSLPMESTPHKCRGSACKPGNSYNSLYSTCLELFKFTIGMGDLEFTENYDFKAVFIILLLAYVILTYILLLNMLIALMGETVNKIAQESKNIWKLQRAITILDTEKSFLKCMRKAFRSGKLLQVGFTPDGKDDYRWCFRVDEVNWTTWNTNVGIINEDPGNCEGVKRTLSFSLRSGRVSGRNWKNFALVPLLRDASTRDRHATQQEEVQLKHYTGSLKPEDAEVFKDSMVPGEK

`COc1cc(CCC(=O)CC(=O)C2(C)CCCCC2)ccc1O` [Compound 10, 5-(4-Hydroxy-3-methoxy-phenyl)-1-(1-methyl-cyclohexyl)-pentane-1,3-dione] showed an Emax (TRPV1 receptor [1]) of 16%.
`COc1cc(/C=C/C(=O)CC(=O)CC(C)(C)C)ccc1O` [Compound 35, (E)-7,7-Dimethyl-1-(4-hydroxy-3-methoxyphenyl)-oct-1-ene-3,5-dione] showed an Emax (TRPV1 receptor [1]) of 25% and a melting point of 130 to 132 °C.
With `COc1cc(/C=C/C(=O)CC(=O)C2(C)CCCCC2)ccc1O` [Compound 42, (E)-5-(4-Hydroxy-3-methoxyphenyl)-1-(1-methylcyclohexyl)-pent-4-ene-1,3-dione] the Emax (TRPV1 receptor [1]) was 6%.
With `COc1cc(/C=C/C(=O)CC(=O)C(C)C)ccc1O` [Compound 33, (E)-1-(4-Hydroxy-3-methoxyphenyl)-6-methyl-hept-1-ene-3,5-dione] the Emax (TRPV1 receptor [1]) was -12%.
`COc1cc(/C=C/C(=O)CC(=O)C2(C)CC2)ccc1O` [Compound 38, (E)-5-(4-Hydroxy-3-methoxylphenyl)-1-(1-methylcyclopropyl)-pent-4-ene-1,3-dione] showed an Emax (TRPV1 receptor [1]) of -36% and a melting point of 78 to 80 °C.
For `COc1cc(/C=C/C(=O)C(C)C(=O)c2ccccc2)ccc1O` (centres unmarked) [Compound 43, (E)-5-(4-Hydroxy-3-methoxyphenyl)-2-methyl-1-phenyl-pent-4-ene-1,3-dione], the Emax (TRPV1 receptor [1]) was -13%.
In the case of `COc1cc(/C=C/C(=O)CC(=O)C(C)(C)C)ccc1O` [Compound 34, (E)-1-(4-Hydroxy-3-methoxylphenyl)-6,6-dimethyl-hept-1-ene-3,5-dione], the Emax (TRPV1 receptor [1]) is reported as -15%, the inhibition at 3 µM [2] is reported as 11% and the inhibition at 30 µM [2] is reported as 22%. The inhibition at 3 µM [3] was 2%, the inhibition at 30 µM [3] was 43% and the inhibition at 3 µM [4] was 72%. For the same compound, the inhibition at 30 µM [4] was 109%, the “Decrease in cell viability (%)” value (WI-38 cells; 3 μM) was 3% and the “Decrease in cell viability (%)” value (WI-38 cells; 30 μM) was 5%.
Compound `COc1cc(CCC(=O)CC(=O)c2ccc(-c3ccccc3)cc2)ccc1O` [Compound 18, 1-(Biphenyl-4-yl)-5-(4-hydroxy-3-methoxyphenyl)-pentane-1,3-dione] has a melting point of 118 to 119 °C, an inhibition at 3 µM (5-lipoxygenase) of 58% and an inhibition at 30 µM (5-lipoxygenase) of 94%. For the same compound, the inhibition at 3 µM [2] was 0%, the inhibition at 30 µM [2] was 7% and the inhibition at 3 µM [5] was 13%. The inhibition at 30 µM [5] was 79%, the inhibition at 3 µM [3] was 0% and the inhibition at 30 µM [3] was 3%. It also gave an inhibition at 3 µM (TRPV1 receptor [6]) of 10%, an inhibition at 30 µM (TRPV1 receptor [6]) of -12% and an Emax at 3 µM (TRPV1 receptor [6]) of 146%. It also gave an Emax at 30 µM (TRPV1 receptor [6]) of 146%, an inhibition at 3 µM [4] of 86% and an inhibition at 30 µM [4] of 99%. The “Decrease in cell viability (%)” value (WI-38 cells; 3 μM) was 3% and the “Decrease in cell viability (%)” value (WI-38 cells; 30 μM) was 15%.
In the case of `COc1cc(CCC(=O)CC(=O)CC(C)(C)C)ccc1O` [Compound 3, 7,7-Dimethyl-1-(4-hydroxy-3-methoxyphenyl)-octane-3,5-dione], the Emax (TRPV1 receptor [1]) is reported as 63%.
`COc1cc(CCC(=O)CC(=O)C2CCCC2)ccc1O` [Compound 8, 1-Cyclopentyl-5-(4-hydroxy-3-methoxyphenyl)-pentane-1,3-dione] gave an Emax (TRPV1 receptor [1]) of 36%.
For `COc1cc(/C=C/C(=O)CC(=O)c2ccccc2)ccc1O` [Compound 68, (E)-5-(4-Hydroxy-3-methoxyphenyl)-1-phenyl-pent-4-ene-1,3-dione], the Emax (TRPV1 receptor [1]) was 14% and the melting point was 159 to 161.5 °C.
Work on `COc1cc(CCC(=O)CC(=O)c2ccc3ccccc3c2)ccc1O` [Compound 26, 5-(4-Hydroxy-3-methoxyphenyl)-1-(naphthalene-2-yl)-pentane-1,3-dione] yielded a melting point of 101 to 102 °C, an inhibition at 3 µM (5-lipoxygenase) of 60% and an inhibition at 30 µM (5-lipoxygenase) of 98%. It also gave an inhibition at 3 µM [2] of 3%, an inhibition at 30 µM [2] of 34% and an inhibition at 3 µM [5] of 2%. It also gave an inhibition at 30 µM [5] of 64%, an inhibition at 3 µM [3] of 7% and an inhibition at 30 µM [3] of 40%. For the same compound, the inhibition at 3 µM (TRPV1 receptor [6]) was 47%, the inhibition at 30 µM (TRPV1 receptor [6]) was -31% and the Emax at 3 µM (TRPV1 receptor [6]) was 66%. It also gave an Emax at 30 µM (TRPV1 receptor [6]) of 248%, an inhibition at 3 µM [4] of 81% and an inhibition at 30 µM [4] of 100%. For the same compound, the “Decrease in cell viability (%)” value (WI-38 cells; 3 μM) was 3% and the “Decrease in cell viability (%)” value (WI-38 cells; 30 μM) was 10%.
Work on `COc1cc(/C=C/C(=O)CC(=O)C2CCCC2)ccc1O` [Compound 40, (E)-1-Cyclopentyl-5-(4-hydroxy-3-methoxyphenyl)-pent-4-ene-1,3-dione] yielded an Emax (TRPV1 receptor [1]) of -82%.

From US7589123B2, “Chemical compounds” (Phytopharm PLC, priority 2006, dated 2009)
